Test results taken from US20250084080A1, “CRYSTALLINE AND SALT FORMS OF AN NLRP3 INHIBITOR” (BioAge Labs, Inc., priority 2023, published 2025).
Values after ≈ are worked out from the molar mass of the structure shown.

Columns and labels:
Type in all cases: physicochemical
[1] = Bulk stability (solid state, 1 week; HPLC, XRPD, IC, color); design: key to CL (color): A: no change of color; B: slight discoloration; C: medium discoloration; D: strong discoloration; conditions: for Bulk (HPLC) Purity / CL (color): Solid state
Description: Bulk stability of free form Pattern B was evaluated at 25° C./92.5% RH in an open container, at 40° C./75% RH in an open container and at 60° C. in a tight container over 1 week.

[2] = Competitive equilibration and water activity experiments; conditions: water activity 0 to 0.4 at 5° C. and 0 to 0.6 at 25° C., equilibration 5 days
Description: Relative stability of the hydrate Pattern A and the anhydrate Pattern B was investigated by competitive equilibration and water activity experiments at 5° C. and 25° C.

[3] = Solubility at 37° C. in buffers and biorelevant media, XRPD of residual solid; conditions: for solubility at 2 h / solubility at 24 h: thermodynamic from solid
Summary of the method: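 Solids equivalent to 10 mg anhydrous free form were stirred in 5 mL of each medium (pH 1.2 HCl, pH 4.5 acetate, pH 6.8 phosphate, water, FaSSGF, FaSSIF-v1, FeSSIF-v1, HPMC/Pluronic in acetate) at 37 °C, 400 rpm. Sampled at 2 h and 24 h; supernatant analyzed by HPLC plus pH, 24 h residual solid by XRPD.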

[4] = Hygroscopicity by dynamic vapor sorption (DVS) at 25° C.; conditions: for Desorp. (%) / Sorp. (%): DVS 25° C.
Summary of the method: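 About 5–10 mg sample was cycled 40-0-95-0-40% RH in 10% steps at 25 °C with water vapour. Equilibrium criterion was 0.002 %/min dm/dt, with a minimum 60 min stability duration and a maximum 360 min per stage.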

[5] = 25° C./92.5% RH open, 40° C./75% RH open, 60° C. tight container
[6] = aqueous buffer, pH 4.5 acetate buffer (50 mM), 37° C.
[7] = aqueous buffer, pH 6.8 phosphate buffer (50 mM), 37° C.
[8] = aqueous with cosolvent or surfactant or cyclodextrin, 2% HPMC + 1% Pluronic F68 in pH 4.5 acetate buffer (50 mM), 37° C.
[9] = fassgf or other biorelevant, FaSSGF, pH 1.6, 37° C.
[10] = simulated gastric fluid, pH 1.2 HCl buffer, 37° C.

CCOc1cc(C(=O)N(C)Cc2cnc(CO)c3cn[nH]c23)ccc1-c1cc(F)cc(F)c1 [Free form Pattern A, 2-ethoxy-3′,5′-difluoro-N-((4-(hydroxymethyl)-1H-pyrazolo[4,3-c]pyridin-7-yl)methyl)-N-methyl-[1,1′-biphenyl]-4-carboxamide]
Bulk stability, chemical and physical [1, 5]: chemically and physically stable
Degradation by HPLC [1, 5]: no obvious degradation
Form change by XRPD [1, 5]: no form change
Bulk (HPLC) Purity ([1]; 25° C./92.5% RH, open): 97.9%
CL (color) ([1]; 25° C./92.5% RH, open): A
Bulk (HPLC) Purity ([1]; 40° C./75% RH, open): 97.7%
CL (color) ([1]; 40° C./75% RH, open): A
Bulk (HPLC) Purity ([1]; 60° C., closed): 97.8%
CL (color) ([1]; 60° C., closed): A
Form conversion [2]: converted to anhydrate Pattern B
pH of supernatant at 24 h ([3]; 2% HPMC + 1% Pluronic F68 in pH 4.5 acetate buffer (50 mM), 37° C.): (4.6)
pH of supernatant at 24 h ([3]; FaSSGF, pH 1.6, 37° C.): (1.6)
pH of supernatant at 24 h ([3]; FaSSIF-v1, pH 6.5, 37° C.): (6.5)
pH of supernatant at 24 h ([3]; FeSSIF-v1, pH 5.0, 37° C.): (5.0)
pH of supernatant at 24 h ([3]; Water, 37° C.): (6.3)
solubility at 2 h [3, 6]: 14.4 µg/mL (≈ 31.8 µM)
solubility at 24 h [3, 6]: 13.7 µg/mL (≈ 30.3 µM)
solubility at 2 h [3, 7]: 4.7 µg/mL (≈ 10.4 µM)
solubility at 24 h [3, 7]: 4.3 µg/mL (≈ 9.5 µM)
solubility at 2 h [3, 8]: 24.4 µg/mL
solubility at 24 h [3, 8]: 34.3 µg/mL
solubility at 2 h [3, 9]: 746 µg/mL (≈ 1650 µM)
solubility at 24 h [3, 9]: 616 µg/mL (≈ 1360 µM)
pH of supernatant at 24 h ([3]; pH 1.2 HCl buffer, 37° C.): (1.2)
pH of supernatant at 24 h ([3]; pH 4.5 acetate buffer (50 mM), 37° C.): (4.5)
pH of supernatant at 24 h ([3]; pH 6.8 phosphate buffer (50 mM), 37° C.): (6.8)
solubility at 2 h [3, 10]: 425 µg/mL (≈ 940 µM)
solubility at 24 h [3, 10]: 402 µg/mL (≈ 888 µM)
solubility at 2 h ([3]; FaSSIF-v1, pH 6.5, 37° C.): 14.5 µg/mL (≈ 32 µM)
solubility at 24 h ([3]; FaSSIF-v1, pH 6.5, 37° C.): 17.7 µg/mL (≈ 39.1 µM)
solubility at 2 h ([3]; FeSSIF-v1, pH 5.0, 37° C.): 142 µg/mL (≈ 314 µM)
solubility at 24 h ([3]; FeSSIF-v1, pH 5.0, 37° C.): 168 µg/mL (≈ 372 µM)
solubility at 2 h ([3]; Water, 37° C.): 5.6 µg/mL (≈ 12.4 µM)
solubility at 24 h ([3]; Water, 37° C.): 4.6 µg/mL (≈ 10.2 µM)
Desorp. (%) ([4]; 0% RH, 1st desorption): 0.01%
Sorp. (%) ([4]; 0% RH, 2nd sorption): 0.01%
Desorp. (%) ([4]; 10% RH, 1st desorption): 3.59%
Sorp. (%) ([4]; 10% RH, 2nd sorption): 0.09%
Desorp. (%) ([4]; 20% RH, 1st desorption): 3.74%
Sorp. (%) ([4]; 20% RH, 2nd sorption): 3.45%
Desorp. (%) ([4]; 30% RH, 1st desorption): 3.79%
Sorp. (%) ([4]; 30% RH, 2nd sorption): 3.78%
Desorp. (%) ([4]; 40% RH, 1st desorption): 3.83%
Sorp. (%) ([4]; 40% RH, 1st sorption): 3.87%
Desorp. (%) ([4]; 40% RH, 2nd desorption): 3.83%
Sorp. (%) ([4]; 40% RH, 2nd sorption): 3.82%
Desorp. (%) ([4]; 50% RH, 1st desorption): 3.93%
Sorp. (%) ([4]; 50% RH, 1st sorption): 3.90%
Desorp. (%) ([4]; 50% RH, 2nd desorption): 3.92%
Sorp. (%) ([4]; 50% RH, 2nd sorption): 3.87%
Desorp. (%) ([4]; 60% RH, 1st desorption): 4.00%
Sorp. (%) ([4]; 60% RH, 1st sorption): 3.94%
Desorp. (%) ([4]; 60% RH, 2nd desorption): 3.99%
Sorp. (%) ([4]; 60% RH, 2nd sorption): 3.93%
Desorp. (%) ([4]; 70% RH, 1st desorption): 4.07%
Sorp. (%) ([4]; 70% RH, 1st sorption): 4.01%
Desorp. (%) ([4]; 70% RH, 2nd desorption): 4.06%
Sorp. (%) ([4]; 70% RH, 2nd sorption): 4.00%
Desorp. (%) ([4]; 80% RH, 1st desorption): 4.17%
Sorp. (%) ([4]; 80% RH, 1st sorption): 4.12%
Desorp. (%) ([4]; 80% RH, 2nd desorption): 4.15%
Sorp. (%) ([4]; 80% RH, 2nd sorption): 4.11%
Desorp. (%) ([4]; 90% RH, 1st desorption): 4.35%
Sorp. (%) ([4]; 90% RH, 1st sorption): 4.33%
Desorp. (%) ([4]; 90% RH, 2nd desorption): 4.33%
Sorp. (%) ([4]; 90% RH, 2nd sorption): 4.30%
Desorp. (%) ([4]; 95% RH, 1st desorption): 4.61%
Sorp. (%) ([4]; 95% RH, 1st sorption): 4.61%
Desorp. (%) ([4]; 95% RH, 2nd desorption): 4.58%
Sorp. (%) ([4]; 95% RH, 2nd sorption): 4.58%
Water absorbed from 40% RH to 80% RH ([4]; DVS at 25° C.): It absorbed 0.3%
XRPD after DVS test ([4]; DVS at 25° C.): No form change
